Measurements from paper PMC9775322, “An Integrated Analysis of Mechanistic Insights into Biomolecular Interactions and Molecular Dynamics of Bio-Inspired Cu(II) and Zn(II) Complexes towards DNA/BSA/SARS-CoV-2 3CL^pro by Molecular Docking-Based Virtual Screening and FRET Detection” (Biomolecules, 2022).

What was measured:
BSA = biological target: T1, BSA (Bos taurus, UniProt P02769); test: Förster's theory-based FRET computation, donor (BSA)–acceptor (compound); type: binding, bovine; parameters: kET (rate of exchange resonance energy transfer): unit not given here
T1 construct: purchased Sigma Aldrich
T1 sequence (P02769 25-607): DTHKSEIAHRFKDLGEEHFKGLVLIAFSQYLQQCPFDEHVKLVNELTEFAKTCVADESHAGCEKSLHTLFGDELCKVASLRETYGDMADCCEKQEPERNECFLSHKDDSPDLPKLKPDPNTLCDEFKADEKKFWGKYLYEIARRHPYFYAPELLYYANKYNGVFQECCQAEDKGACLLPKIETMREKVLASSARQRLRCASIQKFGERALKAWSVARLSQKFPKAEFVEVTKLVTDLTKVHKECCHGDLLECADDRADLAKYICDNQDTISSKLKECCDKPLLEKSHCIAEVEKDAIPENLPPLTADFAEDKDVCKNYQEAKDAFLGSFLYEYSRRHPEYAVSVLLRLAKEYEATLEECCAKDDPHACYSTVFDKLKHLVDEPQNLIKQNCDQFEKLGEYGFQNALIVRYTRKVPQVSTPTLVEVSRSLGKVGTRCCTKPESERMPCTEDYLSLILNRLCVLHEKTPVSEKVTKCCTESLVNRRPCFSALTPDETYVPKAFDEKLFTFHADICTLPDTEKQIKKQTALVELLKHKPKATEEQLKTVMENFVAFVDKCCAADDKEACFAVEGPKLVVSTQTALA
From the text: As per Förster’s theory, the critical distance of the donor-acceptor system can be determined with the supporting of the FRET approach to assess the binding affinity between BSA-substance systems. […]
excitation and emission directions, respectively. Also, the alteration in absorbance (OD) at the excitation and fluorescence wavelengths, respectively, is sometimes referred to as A ex and […]
F = 1+KSV [Q] = 1+ Kq τ0 (S13)
Where [Q] is represented as the sample concentration (quencher), the emission intensities F 0 and F are those in the […] of the quencher, respectively.
F ) = log Kass + nlog [Q] (S14)
KEB[EB] = Kapp[compound] (S15)
∆F = (F 0–F), Equation (16) was utilized to examine the Lineweaver –Burk binding constant (KLB) from the linear regression plot of 1/(F0–F) vs 1/[Q]. […]
γ =(F0–F)/F0, CF is denoted as the concentration of sample alone, the linear regression plot of (γ/CF) vs γ was employed to support equation (17), which was used to determine the values of KSA and n, respectively.
2.2.6. FRET calculation by Förster’s theory
Calculating FRET (Fluorescence Resonance Energy Transfer) is a crucial approach in determining the critical distance (r) between donor (BSA) and acceptor (test compound) molecules, in which the binding affinity between the BSA-complex systems could be evalued according to Förster’s theory. The overlap of the emission spectrum of the donor (BSA) and the absorption spectrum of the acceptor (compound) describes that the acceptor (compound) group may get excited as a result of the excited donor's (BSA) energy being lost to the ground […]
The relative orientation factor of the dipoles (K 2) is associated with the geometry of the BSA and complex of the dipoles, the value for random orientation (K 2 = 2/3) like in a fluid […]
F(λ) is represented as the corrected or the normalized emission intensity(OD) of the bovine serum albumin in the range of λ–(λ+∆λ), ε(λ) is denoted as the molar extinction coefficient of […]
The radiative, non-radiative decay and quenching rate constants are denoted as k r, knr and kq, respectively, and the concentration of complex (quenching species) is described as [Q].

Escherichia coli = test: Agar disc diffusion antibacterial test; details: A, (-) Escherichia coli
CT-DNA [1] = test: DNA binding by UV–visible absorption titration; parameters: species or system calf
Procedure: The DNA-binding experiment was performed by a UV–visible spectrophotometer by raising the DNA concentration from zero to 50 μM to the given concentration of all samples (50 μM) in Tris-HCl buffer with a pH of 7.4 at 25 °C [21, 22].
2.2.2. Evaluation of DNA-binding characteristics
By increasing the concentration of DNA (0 –50 μM), electronic absorption titrations were performed at the fixed concentration (50 μM) of all test compounds in aqueous media at room temperature. The Tris-HCl buffer (5mM Tris-HCl /50 mM NaCl, pH = 7.2) solution was guaranteed to be pure and contain sufficient amounts of DNA. Using the molar extinction coefficient (6600 M −1 cm−1) at 260 nm, it was also possible to measure the DNA concentration per nucleotide and polynucleotide, denoting that the DNA was sufficiently free of protein by the ratio of absorbance at 260 and 280 nm of roughly 1.8 –1.9 [21, 22]. When raising the concentration of DNA in compound solution, up to the point of completely binding, the decrease in absorbance intensity was carefully observed. […]
ɛa is represented as the apparent absorption coefficient value for the MLCT band at a specific concentration of deoxyribonucleic acid and evaluated from Abs/[complex]. ɛ f and ɛb are the absorption coefficients for the chemical substance alone and completely interacted with deoxyribonucleic acid, respectively. ∆Amax = (Amax–A0); ∆A=(Ax–A0), where A0, Ax and Amax are denoted as the optical density of chemical substances alone, the middle form, and the completely interacted form with deoxyribonucleic acid, respectively.

CT-DNA [2] = test: DNA binding affinity by viscometric (hydrodynamic) titration; parameters: species or system calf; details: for Relative Specific Viscosity (η/η0)^1/3: DNA 100 µM
Procedure: The hydrodynamic titrations were carried out for all substances along with ethidium bromide (control) at 20, 40, 60, 80, 100 µM concentrations. In the Ostwald viscometer, these substances were also separately treated with the deoxyribonucleic acid solution (100 µM).
2.2.4. Viscometry-based titration for investigation of DNA binding
The Viscometry-based titration measurements were further supportive and delivered data about the binding modes between test compound and DNA base pairs. Nevertheless, it does not deliver definite confirmation for the exact mode of interactions. The experiment performed for all test compounds and ethidium bromide (control) at various concentrations 20, 40, 60, 80, 100 µM and each compound mixed with the CT-DNA solution (100 µM) in the Ostwald viscometer. With an accuracy of 0.01 seconds, a digital stopwatch was used to measure the average flow time. Due to the enhancement of the DNA's overall contour length during the separation of base pairs at intercalation sites, the classical intercalative mode […]
Generally, the compounds may result in less positive/negative or no viscosity change if they bind with DNA base pairs via […]
major or minor grooves [ 26]. […]
compounds via intercalation.

[3] = system: Chromo bacterium violaceum; test: Agar disc diffusion antibacterial test; details: C, (-) Chromo bacterium violaceum
EB–DNA = test: Ethidium bromide displacement assay by fluorescence spectral titration; type: binding, calf; details: Kapp=KEB[EB]/[compound], KEB = 10^7 M^−1 at 50 µM EB; compound concentration at 50% reduction of EB fluorescence
Mucor indicus = test: Agar disc diffusion antifungal test; details: J
[4] = 20 µL of 100 µM on 6 mm disc, Control (DMSO) = 6 mm
[5] = compound 50 μM, DNA 0–50 μM, Tris-HCl buffer pH 7.4, 25 °C
[6] = intrinsic DNA binding constant, UV–Vis titration

[Cu+2].[O-]c1ccccc1N=Cc1ccc(N2CCOCC2)cc1.[O-]c1ccccc1N=Cc1ccc(N2CCOCC2)cc1.c1cnc2c(c1)ccc1cccnc12 [(1b), [Cu^II(L)2(phen)]]
J (normalized spectral overlap integral) (BSA; BSA emission vs compound absorption): 0.6852 × 10^−14 LM^−1cm^3 | kET (rate of exchange resonance energy transfer) (BSA; BSA–compound): 3.8294 | r (donor-acceptor separation) (BSA; BSA–compound): 2.7780 nm | E (efficiency of energy transfer) (BSA; E=1−F/F0): 0.2769 | B (average brightness of the complex-BSA system) (BSA; free BSA = 6573.60 M^−1 cm^−1): 4999.08 M⁻¹ cm⁻¹ | R0 (critical distance, 50% energy transfer) (BSA; n = 1.36, Φ = 0.15, K^2 = 2/3): 2.3673 nm | diameter of clear zone inhibition (Escherichia coli; [4]): 9 mm | Inhibition % (Escherichia coli; (T–C)/T × 100): 33% | ΔGb° values, range over all methods (WS, BH, SK) (CT-DNA [1]; DNA binding, UV–Vis titration): −24.58 to −25.12 kJmol^−1 | % H (hypochromism) (CT-DNA [1]; [5]): 56.88% | Δλ nm (red shift on binding to CT-DNA) (CT-DNA [1]; [5]): 7 nm | Kb, BH–I (Benesi–Hildebrand method I) (CT-DNA [1]; [6]): 25359 M⁻¹ | Kb, BH–II (Benesi–Hildebrand method II) (CT-DNA [1]; [6]): 25251 M⁻¹ | Kb, SK–I (Sakthi–Krause method I) (CT-DNA [1]; [6]): 20314 M⁻¹ | Kb, SK–II (Sakthi–Krause method II) (CT-DNA [1]; [6]): 21747 M⁻¹ | Kb, WS–I (Wolfe-Shimmer method I) (CT-DNA [1]; [6]): 20610 M⁻¹ | Kb, WS–II (Wolfe-Shimmer method II) (CT-DNA [1]; [6]): 21357 M⁻¹ | ΔGb°, BH–I (CT-DNA [1]; −RT ln Kb, T = 298 K): −25.12 kJmol^−1 | ΔGb°, BH–II (CT-DNA [1]; −RT ln Kb, T = 298 K): −25.11 kJmol^−1 | ΔGb°, SK–I (CT-DNA [1]; −RT ln Kb, T = 298 K): −24.58 kJmol^−1 | ΔGb°, SK–II (CT-DNA [1]; −RT ln Kb, T = 298 K): −24.74 kJmol^−1 | ΔGb°, WS–I (CT-DNA [1]; −RT ln Kb, T = 298 K): −24.61 kJmol^−1 | ΔGb°, WS–II (CT-DNA [1]; −RT ln Kb, T = 298 K): −24.70 kJmol^−1 | Relative Specific Viscosity (η/η0)^1/3 (CT-DNA [2]; R = [Complex]/[DNA] = 0.2): 0.82 | Relative Specific Viscosity (η/η0)^1/3 (CT-DNA [2]; R = [Complex]/[DNA] = 0.4): 1.10 | Relative Specific Viscosity (η/η0)^1/3 (CT-DNA [2]; R = [Complex]/[DNA] = 0.6): 1.25 | Relative Specific Viscosity (η/η0)^1/3 (CT-DNA [2]; R = [Complex]/[DNA] = 0.8): 1.45 | Relative Specific Viscosity (η/η0)^1/3 (CT-DNA [2]; R = [Complex]/[DNA] = 1.0): 1.71 | Slope of (η/η0)^1/3 vs [Compound]/[DNA] (CT-DNA [2]; linear plot, R 0.2–1.0): 1.0805 | diameter of clear zone inhibition [3, 4]: 11 mm | Inhibition % ([3]; (T–C)/T × 100): 45% | Kapp (apparent binding constant) (EB–DNA): 1e+07 M⁻¹ | diameter of clear zone inhibition (Mucor indicus; [4]): 10 mm | Inhibition % (Mucor indicus; (T–C)/T × 100): 40%
